According to patent US20260226493A1, “HERBICIDE RESISTANT PLANTS” (SYNGENTA CROP PROTECTION AG, priority 2023, published 2026):

How the values were obtained:
[1] = target: T1, Arabidopsis BioDAΔMTP (Arabidopsis thaliana, UniProt B0F481); assay: BioDA enzyme activity with DMSO or herbicide in vitro (wild-type reference enzyme); type: biochemical; details: for % Inhibition relative to DMSO treatment: Arabidopsis BioDAΔMTP (Table 26)
T1 construct: with the predicted N-terminal mitochondrial transit peptide removed; 6xHis-tag (N); thrombin cleavage site (N); made in house; host or cells: E. coli BL21 (DE3) bioA
T1 sequence (B0F481 with tags, fused parts or gaps): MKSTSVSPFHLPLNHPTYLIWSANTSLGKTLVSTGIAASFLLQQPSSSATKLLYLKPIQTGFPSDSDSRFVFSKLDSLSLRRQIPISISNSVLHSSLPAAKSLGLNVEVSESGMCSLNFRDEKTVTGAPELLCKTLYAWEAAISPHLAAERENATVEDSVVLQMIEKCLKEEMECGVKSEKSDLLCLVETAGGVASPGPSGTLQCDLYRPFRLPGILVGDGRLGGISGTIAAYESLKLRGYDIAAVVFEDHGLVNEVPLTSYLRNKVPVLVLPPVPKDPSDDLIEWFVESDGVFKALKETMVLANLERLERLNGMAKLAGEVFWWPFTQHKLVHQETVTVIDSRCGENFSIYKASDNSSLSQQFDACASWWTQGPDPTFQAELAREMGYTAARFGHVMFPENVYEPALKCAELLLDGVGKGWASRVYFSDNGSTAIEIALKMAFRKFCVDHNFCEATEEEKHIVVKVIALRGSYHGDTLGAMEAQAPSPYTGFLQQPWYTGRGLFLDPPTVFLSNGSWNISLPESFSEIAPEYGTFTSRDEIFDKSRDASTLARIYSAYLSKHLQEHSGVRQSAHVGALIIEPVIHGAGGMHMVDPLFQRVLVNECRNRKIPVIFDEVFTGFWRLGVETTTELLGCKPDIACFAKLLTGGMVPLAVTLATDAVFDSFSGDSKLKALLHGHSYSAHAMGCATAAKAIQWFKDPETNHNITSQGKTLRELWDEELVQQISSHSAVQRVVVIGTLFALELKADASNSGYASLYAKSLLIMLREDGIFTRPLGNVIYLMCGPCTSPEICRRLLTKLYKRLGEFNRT

[2] = system: Chroococcidiopsis BioA; assay: BioA enzyme activity with DMSO or herbicide in vitro; type: biochemical, Chroococcidiopsis sp. CCMEE 29; details: spermidine in substrate mix
Text: A pet-24 plasmid containing a DNA sequence encoding each identified variant mutant of BIO3-BIO1 derived from Arabidopsis thaliana from example 5 above, as shown in Table 13 below and as shown in full in SEQ ID NOs: 15 to 155, codon-optimised for expression in E. coli, with an N-terminal 6×His-tag and thrombin cleavage site and under control of a T7 promoter, and was synthesised by Twist Bioscience, in a similar manner to SEQ ID NO:311. These plasmids were then expressed in E. coli BL21 (DE3) bioA with 50 μg/mL kanamycin and 25 μg/mL chloramphenicol selection. Overnight cultures grown at 37° C. were used to inoculate 8×500 mL AIM in shake flasks at a ratio of 1:100. Cultures were grown at 37° C., 200 rpm for 3.5 hours and then overnight at 20° C. Cells were harvested by centrifugation for 30 minutes at 10 000 g. Cells were stored at −80° C. until extraction. 30 g of cell pellet from was thawed in 120 mL of IMAC buffer A (20 mM HEPES pH7.5, 25 mM imidazole, 500 mM sodium chloride, 0.15 mM pyridoxal phosphate, 0.5 mM TCEP, 1× complete Protease Inhibitor Tablet (Roche)). The resuspension was passed through a cell disrupter at 18 000 PSI and centrifuged at 50 000 g for 25 minutes at 4° C. The His-tagged BIO3-BIO1 protein was purified from the extract supernatant on an AKTA avant chromatography system (Cytiva) using a HisTrap FF column and eluted in IMAC buffer B ((20 mM HEPES pH7.5, 500 mM imidazole, 500 mM sodium chloride, 0.15 mM pyridoxal phosphate, 0.5 mM TCEP) followed by SEC using a HiLoad 26/60 Superdex200 column in SEC buffer (25 mM HEPES pH7.5, 150 mM sodium chloride, 0.15 mM pyridoxal phosphate, 0.5 mM TCEP). Protein concentration was measured and calculated using the absorbance at 280 nm. Extracts were diluted 1 in 4 and 10 uL was analysed by SDS PAGE.
To measure BIO3-BIO1 mutant enzyme activity in the presence of herbicide, herbicides were incubated with 20 μL of enzyme mix (100 mM EPPS pH 8.6, 0.1 mM pyridoxal phosphate, 0.1 mg/mL BSA, 50 nM BIO3-BIO1 enzyme) for 10 minutes at 20° C. in a well of a 96-well half-area black plate, followed by the addition of 20 μL of substrate mix (final concentration of 100 mM EPPS pH 8.6, 0.1 mM pyridoxal phosphate, 0.1 mg/mL BSA, 100 μM spermidine, 20 μM KAPA, 100 mM NaCO3) and further incubation for 75 minutes at 20° C. The reaction was terminated by the addition of 50 μL of derivatisation mix (final concentration of 250 mM borate NaOH pH 9.4, 3.6 mM o-phthalaldehyde, 7 mM β-mercaptoethanol, 17% (v/v) ethanol, 3.6% (v/v) methanol). The fluorescent product produced by the reaction of DAPA with o-phthalaldehyde and 7 mM β-mercaptoethanol was measured at 470 nm after excitation at 410 nm. The percentage inhibition was calculated as the activity in the presence of one of three concentrations of each herbicide compound A to M (note that the compounds labelled as A to M are identified hereinabove in the relevant section of the description) as a percentage of the activity in DMSO (Table 12 and 13). The percentage activity versus WT was also calculated and is shown in Table 13 and 14 (NT indicates mutation not tested in table 13, note that these mutations are tested at different compound concentrations for compounds L, M and C, and the results are shown in table 14).
Protein of Escherichia coli BioA (SEQ ID NO:159), Pantoea ananatis BioA (SEQ ID NO:167), Streptomyces viridochromogenes BioA (SEQ ID NO:170), Cryptosporidium andersoni BioA (SEQ ID NO:160), Stenotrophomonas maltophilia BioA (SEQ ID NO:171), Chroococcidiopsis BioA (SEQ ID NO:184), Pedobacter hartonius BioA (SEQ ID NO:181), Chitinophaga filiformis BioA (SEQ ID NO:180), Tenacibaculum adriaticum BioA (SEQ ID NO:185) and Bacillus subtilis BioA (SEQ ID NO:166) was prepared using the method in Example 6. BioA enzyme activity in the presence of herbicide or DMSO in vitro for each of the proteins was assayed according to the enzyme assay method in Example 6, except in some reactions spermidine was replaced with 2 mM S-Adenosyl methionine.

[3] = Arabidopsis (SEQ ID NO 294), spermidine in substrate mix, read-out: % Inhibition relative to DMSO treatment
[4] = 31 μM, Arabidopsis (SEQ ID NO 294), spermidine in substrate mix, read-out: % Inhibition relative to DMSO treatment
[5] = 500 μM, Arabidopsis (SEQ ID NO 294), spermidine in substrate mix, read-out: % Inhibition relative to DMSO treatment

CCn1c(-c2ccc(Cl)c(Cl)c2)c(C(=O)O)c(=O)c2cc(F)ccc21 [Compound M, 2-(3,4-dichlorophenyl)-1-ethyl-6-fluoro-4-oxo-quinoline-3-carboxylic acid]
inhibition at 0.5 µM [1, 3]: 45%
% Inhibition relative to DMSO treatment ([2]; 0.5 μM): 10%

CCn1c(C)c(-c2ccc(F)cc2F)c(=O)c(C(=O)O)c1-c1ccc(Cl)c(Cl)c1 [Compound C, 2-(3,4-dichlorophenyl)-5-(2,4-difluorophenyl)-1-ethyl-6-methyl-4-oxo-pyridine-3-carboxylic acid]
inhibition at 0.5 µM [1, 3]: 53%
% Inhibition relative to DMSO treatment ([2]; 0.5 μM): 2%

CCOC(=O)c1nn(-c2ccc3c(c2)OC(F)(F)C(F)(F)O3)c2cccc(C(C)=O)c2c1=O [Compound A, ethyl 5-acetyl-4-oxo-1-(2,2,3,3-tetrafluoro-1,4-benzodioxin-6-yl)cinnoline-3-carboxylate]
inhibition at 25 µM ([1]; 25 μM, Arabidopsis (SEQ ID NO 294), spermidine in substrate mix, read-out: % Inhibition relative to DMSO treatment): 96%
% Inhibition relative to DMSO treatment ([2]; 25 μM): 0%

CC(O)C(N)CCCCC(=O)O.Cl (centres unmarked) [Compound B, [5-carboxy-1-(1-hydroxyethyl)pentyl]ammonium chloride]
inhibition at 31 µM [1, 4]: 79%
inhibition at 200 µM [1, 3]: 96%
inhibition at 500 µM [1, 5]: 96%
% Inhibition relative to DMSO treatment ([2]; 200 μM): 99%

CCn1c(Cn2ccc(C(F)(F)F)n2)cc(=O)c(C(=O)O)c1-c1ccc(Cl)c(Cl)c1 [Compound L, 2-(3,4-dichlorophenyl)-1-ethyl-4-oxo-6-[[3-(trifluoromethyl)pyrazol-1-yl]methyl]pyridine-3-carboxylic acid]
inhibition at 0.5 µM [1, 3]: 83%
inhibition at 31 µM [1, 4]: 99%
% Inhibition relative to DMSO treatment ([1]; 31 μM): 99%
inhibition at 500 µM [1, 5]: 98%
% Inhibition relative to DMSO treatment ([1]; 500 μM): 98%
% Inhibition relative to DMSO treatment ([2]; 0.5 μM): 15%

CCn1c(C)c(-c2cc(OC(F)(F)F)ccc2Cl)c(=O)c(C(=O)O)c1-c1ccc(Cl)c(Cl)c1 [Compound D, 5-[2-chloro-5-(trifluoromethoxy)phenyl]-2-(3,4-dichlorophenyl)-1-ethyl-6-methyl-4-oxo-pyridine-3-carboxylic acid]
inhibition at 0.5 µM [1, 3]: 95%
% Inhibition relative to DMSO treatment ([2]; 0.5 μM): 0%

C[C@@H](N)COc1cccc(C(=O)O)n1.Cl.Cl [Compound E, [(1R)-2-(6-carboxypyridin-1-ium-2-yl)oxy-1-methyl-ethyl]ammonium dichloride]
inhibition at 200 µM [1, 3]: 96%
% Inhibition relative to DMSO treatment ([2]; 200 μM): 26%
